Laboratory results published in patent publication US6610471B1, “Methods and compositions to investigate infection by hepatitis B virus and agents to prevent and treat the infection” (priority 1998, dated 2003).

Key:
Type in all cases: cell-based, hepatitis B virus
[1] = system: HBV; test: Extracellular HBV DNA secreted by HBV baculovirus infected HepG2 cells (Southern blot, densitometry)
Procedure: (T). […] Relaxed circular (RC) and double-stranded (DS) forms of HBV DNA are indicated. […] (T). […] Replicative intermediates were analyzed by Southern blotting. Double-stranded (DS) and single-stranded (SS) forms of HBV genomic DNA are indicated.
One limitation of using stable cell lines, such as HepG2 2.2.15 cells, for evaluating the efficacy of an antiviral on HBV replication is that the magnitude of virus replication is at a static level predetermined by the number of integrated HBV genome copies. […] Cultures were fed fresh 3TC supplemented medium daily. After 3 days of treatment (4 days p.i.). DNA was extracted from the medium of treated and untreated control cultures and analyzed by Southern Blotting. Autoradiograms shown indicate different elngths of time of exposure of the blot to film: 1 hour (A), 2 hours (B), 4 hours (C), and 8 hours (D). Relaxed circular (RC) and double-stranded (DS) forms of HBV DNA are indicated. The largest reduction of extracellular HBV DNA (>99% reduction after six days of treatment) occurred in cells infected with 25 pfu of baculovirus, the lowest multiplicity tested. […] However, it is also important to note that even a 96% reduction in HBV replication still allowed high levels of HBV virions to be secreted from 3TC-treated cells which were replicating very high levels of HBV (i.e. cells infected with HBV baculovirus at a high moi).
(§1) HepG2 cells were seeded at approximately 20% to 40% confluency and then were grown for 16 to 24 hours before infection. On the day of infection, duplicate plates of cells were trypsinized, and viable cell number was determined with a hemocytometer using Trypan blue exclusion. Average cell counts were calculated and used to determine the volume of high-titer viral stock necessary to infect cells at the indicated moi. Baculovirus was diluted into MEM-FBS to achieve the appropriate moi using volumes of 1.0 and 0.25 mL to infect 100-mm and 35-mm dishes, respectively. Baculovirus was adsorbed to HepG2 cells for one hour at 37° C. with gentle rocking every 15 minutes to ensure that the inoculum was evenly distributed. The inoculum was then aspirated and HepG2 cells were washed two times with phosphate-buffered saline and refed MEM-FBS.
Conditioned medium was collected from HepG2 cells and subjected to centrifugation at 6,000 g for 5 minutes to I5- remove cellular debris. HBV particles were precipitated with 10% PEG 8000 and were concentrated by centrifugation at 12,000×g. Viral pellets were resuspended in 1 mL of MEM-FBS and divided into two aliquots. One set of aliquots was treated with 750 μg/mL Pronase for one hour and then with 500 mg/mL DNase 1 for one hour. Both sets of aliquots were then digested with Proteinase K, and extracted with phenol and chloroform. DNA was precipitated with 0.1 volume of 3 mol/L sodium acetate and 1 volume of isopropanol. Ten micrograms of transfer RNA was added as a carrier during precipitation. Pellets were resuspended in 25 μL of TE and digested with 0.5 mg/mL RNase for 1 hour. DNA was then analyzed by electrophoresis and Southern blotting.
(§2) 3TC was a gift of BioChem Therapeutic Inc. (Laval, Quebec, Canada). […] Medium containing 3TC was prepared daily as needed using fresh aliquots of 3TC.

[2] = system: HBV; test: Non protein-associated RC and CCC HBV DNA in HBV baculovirus infected HepG2 cells (Southern blot); details: for non protein-associated RC HBV DNA, % Untreated Control: 50 pfu/cell
Procedure: On the indicated days (3, 6, and 9 days of drug treatment) HBV replication in HepG2 cultures was assessed by examining extracellular HBV DNA and intracellular replicative intermediates.
(T). […] Relaxed circular (RC) and covalently closed circular (CCC) HBV DNA is indicated. […] A conclusion from these studies is that the HBV baculovirus-HepG2 system can be used to complement other in vitro model systems currently used for testing antiviral compounds.
as §1
Nonprotein-bound circular HBV genomes were extracted from HepG2 cells after infection by a high salt extraction of low molecular weight DNA followed by a phenol and chloroform extraction. Nucleic acids were resuspended in 50 μL of water and normalized by OD260. All samples were treated with 100 μg/mL RNase and 30 U of Plasmid-Safe ATP-Dependent DNase (Epicenter Technologies, Madison, Wis.). After a two-hour incubation at 37° C., Plasmid-Safe DNase was heat inactivated at 65° C. according to the manufacturer's instructions. Each sample was separated into two aliquots and one aliquot was digested with Xhol for one hour at 37° C. Samples were analyzed by electrophoresis and Southern blotting.
as §2

[3] = system: HBV; test: Extracellular HBV DNA secreted by HBV baculovirus infected HepG2 cells (Southern blot, densitometry); details: 0.2 μM 3TC, 10 day treatment

Nc1ccn([C@@H]2CS[C@H](CO)O2)c(=O)n1 [3TC, (−)-2′-dideoxy-3′-thiacytidine]
extracellular HBV DNA, % Untreated Control ([1]; 0.02 μM 3TC, P (from 16 h prior to infection), day 4 p.i. (3 days treatment), 50 pfu/cell): 69.8 % Untreated Control
extracellular HBV DNA, % Untreated Control ([1]; 0.02 μM 3TC, P (from 16 h prior to infection), day 7 p.i. (6 days treatment), 50 pfu/cell): 60.6 % Untreated Control
extracellular HBV DNA, % Untreated Control ([1]; 0.02 μM 3TC, P (from 16 h prior to infection), day 10 p.i. (9 days treatment), 50 pfu/cell): 38.1 % Untreated Control
extracellular HBV DNA, % Untreated Control ([1]; 0.02 μM 3TC, T (from 24 h p.i.), day 4 p.i. (3 days treatment), 50 pfu/cell): 68.1 % Untreated Control
extracellular HBV DNA, % Untreated Control ([1]; 0.02 μM 3TC, T (from 24 h p.i.), day 7 p.i. (6 days treatment), 50 pfu/cell): 39.6 % Untreated Control
extracellular HBV DNA, % Untreated Control ([1]; 0.02 μM 3TC, T (from 24 h p.i.), day 10 p.i. (9 days treatment), 50 pfu/cell): 33.0 % Untreated Control
reduction of extracellular HBV DNA ([1]; 0.02 μM 3TC, nine day treatment, moi 50 pfu/cell): 67%
reduction of HBV DNA in the medium ([1]; 0.02 μM 3TC, three days of treatment, moi 50 pfu/cell): about 30%
extracellular HBV DNA, % Untreated Control ([1]; 0.2 μM 3TC from 24 h p.i., moi 25, day 4 p.i. (3 days treatment)): 4.8 % Untreated Control
extracellular HBV DNA, % Untreated Control ([1]; 0.2 μM 3TC from 24 h p.i., moi 25, day 7 p.i. (6 days treatment)): 0.5 % Untreated Control
extracellular HBV DNA, % Untreated Control ([1]; 0.2 μM 3TC from 24 h p.i., moi 50, day 4 p.i. (3 days treatment)): 13.9 % Untreated Control
extracellular HBV DNA, % Untreated Control ([1]; 0.2 μM 3TC from 24 h p.i., moi 50, day 7 p.i. (6 days treatment)): 3.5 % Untreated Control
extracellular HBV DNA, % Untreated Control ([1]; 0.2 μM 3TC from 24 h p.i., moi 100, day 4 p.i. (3 days treatment)): 27.2 % Untreated Control
extracellular HBV DNA, % Untreated Control ([1]; 0.2 μM 3TC from 24 h p.i., moi 100, day 7 p.i. (6 days treatment)): 3.4 % Untreated Control
extracellular HBV DNA, % Untreated Control ([1]; 0.2 μM 3TC from 24 h p.i., moi 200, day 4 p.i. (3 days treatment)): 20.7 % Untreated Control
extracellular HBV DNA, % Untreated Control ([1]; 0.2 μM 3TC from 24 h p.i., moi 200, day 7 p.i. (6 days treatment)): 2.2 % Untreated Control
extracellular HBV DNA, % Untreated Control ([1]; 0.2 μM 3TC from 24 h p.i., moi 400, day 4 p.i. (3 days treatment)): 18.7 % Untreated Control
extracellular HBV DNA, % Untreated Control ([1]; 0.2 μM 3TC from 24 h p.i., moi 400, day 7 p.i. (6 days treatment)): 4.7 % Untreated Control
extracellular HBV DNA, % Untreated Control ([1]; 0.2 μM 3TC, P (from 16 h prior to infection), day 4 p.i. (3 days treatment), 50 pfu/cell): 10.1 % Untreated Control
extracellular HBV DNA, % Untreated Control ([1]; 0.2 μM 3TC, P (from 16 h prior to infection), day 7 p.i. (6 days treatment), 50 pfu/cell): 2.4 % Untreated Control
extracellular HBV DNA, % Untreated Control ([1]; 0.2 μM 3TC, P (from 16 h prior to infection), day 10 p.i. (9 days treatment), 50 pfu/cell): 0.8 % Untreated Control
extracellular HBV DNA, % Untreated Control ([1]; 0.2 μM 3TC, T (from 24 h p.i.), day 4 p.i. (3 days treatment), 50 pfu/cell): 13.4 % Untreated Control
extracellular HBV DNA, % Untreated Control ([1]; 0.2 μM 3TC, T (from 24 h p.i.), day 7 p.i. (6 days treatment), 50 pfu/cell): 5.6 % Untreated Control
extracellular HBV DNA, % Untreated Control ([1]; 0.2 μM 3TC, T (from 24 h p.i.), day 10 p.i. (9 days treatment), 50 pfu/cell): 1.9 % Untreated Control
reduction of extracellular HBV DNA ([1]; 0.2 μM 3TC, six days of treatment, 25 pfu of baculovirus): > 99%
average reduction of extracellular HBV DNA ([1]; 0.2 μM 3TC, six days of treatment, multiplicities 50 to 400 pfu/cell): greater than 96%
extracellular HBV DNA, % Untreated Control ([1]; 2.0 μM 3TC, P (from 16 h prior to infection), day 4 p.i. (3 days treatment), 50 pfu/cell): 1.3 % Untreated Control
extracellular HBV DNA, % Untreated Control ([1]; 2.0 μM 3TC, P (from 16 h prior to infection), day 7 p.i. (6 days treatment), 50 pfu/cell): 1.2 % Untreated Control
extracellular HBV DNA, % Untreated Control ([1]; 2.0 μM 3TC, P (from 16 h prior to infection), day 10 p.i. (9 days treatment), 50 pfu/cell): 0.8 % Untreated Control
extracellular HBV DNA, % Untreated Control ([1]; 2.0 μM 3TC, T (from 24 h p.i.), day 4 p.i. (3 days treatment), 50 pfu/cell): 2.4 % Untreated Control
extracellular HBV DNA, % Untreated Control ([1]; 2.0 μM 3TC, T (from 24 h p.i.), day 7 p.i. (6 days treatment), 50 pfu/cell): 2.4 % Untreated Control
extracellular HBV DNA, % Untreated Control ([1]; 2.0 μM 3TC, T (from 24 h p.i.), day 10 p.i. (9 days treatment), 50 pfu/cell): 0.8 % Untreated Control
reduction of extracellular HBV DNA ([1]; 2.0 μM 3TC, nine days of treatment, moi 50 pfu/cell): more than 99%
non protein-associated RC HBV DNA, % Untreated Control ([2]; 0.02 μM 3TC, P (from 16 h prior to infection), day 4 p.i. (3 days treatment)): 60.9 % Untreated Control
non protein-associated RC HBV DNA, % Untreated Control ([2]; 0.02 μM 3TC, P (from 16 h prior to infection), day 7 p.i. (6 days treatment)): 45.2 % Untreated Control
non protein-associated RC HBV DNA, % Untreated Control ([2]; 0.02 μM 3TC, T (from 24 h p.i.), day 4 p.i. (3 days treatment)): 48.8 % Untreated Control
non protein-associated RC HBV DNA, % Untreated Control ([2]; 0.02 μM 3TC, T (from 24 h p.i.), day 7 p.i. (6 days treatment)): 40.2 % Untreated Control
non protein-associated RC HBV DNA, % Untreated Control ([2]; 0.2 μM 3TC, P (from 16 h prior to infection), day 4 p.i. (3 days treatment)): 8.6 % Untreated Control
non protein-associated RC HBV DNA, % Untreated Control ([2]; 0.2 μM 3TC, P (from 16 h prior to infection), day 7 p.i. (6 days treatment)): 10.5 % Untreated Control
non protein-associated RC HBV DNA, % Untreated Control ([2]; 0.2 μM 3TC, T (from 24 h p.i.), day 4 p.i. (3 days treatment)): 17.3 % Untreated Control
non protein-associated RC HBV DNA, % Untreated Control ([2]; 0.2 μM 3TC, T (from 24 h p.i.), day 7 p.i. (6 days treatment)): 10.9 % Untreated Control
non protein-associated RC HBV DNA, % Untreated Control ([2]; 2.0 μM 3TC, P (from 16 h prior to infection), day 4 p.i. (3 days treatment)): 3.2 % Untreated Control
non protein-associated RC HBV DNA, % Untreated Control ([2]; 2.0 μM 3TC, P (from 16 h prior to infection), day 7 p.i. (6 days treatment)): 5.6 % Untreated Control
non protein-associated RC HBV DNA, % Untreated Control ([2]; 2.0 μM 3TC, T (from 24 h p.i.), day 4 p.i. (3 days treatment)): 6.8 % Untreated Control
non protein-associated RC HBV DNA, % Untreated Control ([2]; 2.0 μM 3TC, T (from 24 h p.i.), day 7 p.i. (6 days treatment)): 6.7 % Untreated Control
inhibition at 2 µM ([2]; Hepatitis B virus, HepG2, read-out: inhibition of non protein-associated RC HBV DNA production): > 90%
reduction in extracellular DNA [3]: ~98%
